Test results taken from patent publication US11666539B2, “Synthetic lipid-like materials for brain delivery” (Trustees of Tufts College, priority 2020, dated 2023).

Tested on: flox-stop-flox tdTomato construct
Assay: (-27)GFP-Cre protein delivery, tdTomato expression in Ai14 mouse brain
Assay type: in vivo
Conditions: (-27)GFP-Cre/LNP weight ratio 1/4; four i.v. injections of 50 μg protein; brain slices, fluorescence imaging
Source text: GFP fused Cre recombinase was chosen as a model protein for the study, using the Ail4 model mouse line (FIG. 4A). The Ail4 mouse line contains a flox-stop-flox tdTomato construct. The successful intracellular delivery of Cre protein into the cells of Ail4 mouse leads to the gene recombination and turns on the tdTomato expression which can be directly visualized as red fluorescence signal without additional staining. Here, (−27)GFP-Cre protein was used. NT1-O14B LNPs doped with PBA-Q76-O16B was chosen, as these nanoparticles could successfully deliver (−27)GFP-Cre. The weight ratio of NT1-O14B and PBA-Q76-O16B was fixed at 3:7, based on the results observed from the AmB and ASO delivery. Lipid formulations were prepared using the approaches described for the formulation for ASO delivery. Briefly, the (−27)GFP-Cre protein was mixed with LNPs at a weight ratio of 1/4 and incubated the solution for 15 min at room temperature before intravenous injection. Mice were injected four times with a dose of 50 μg protein per injection. Five days after the last injection, the mice were sacrificed and brain tissues were collected, fixed, and dehydrated. Then the tissues were cryo-sectioned into […] slices and counter-stained with DAPI for fluorescence imaging.

In the case of `CCCCCCCCCCCCSSCCOC(=O)CC[N+](CCC(=O)OCCSSCCCCCCCCCCCC)(CCN1CCCC1)Cc1ccc(B(O)O)cc1` [PBA-Q76-O16B], the “tdTomato expression in the brain” value is reported as “no tdTomato expression”.
